Laboratory results published in US7462615B2, “Inhibitors of cysteine proteases, the pharmaceutical compositions thereof and their therapeutic applications” (Hybrigenics SA, priority 2005, dated 2008).
pIC50: −log10 of the molar value. Several values for one entry are separate records, joined by “and”; a condition that tells them apart may be missing. Equal entries are not always repeated. Where two headings read alike, the source gives them in different places.

Columns and labels:
[1] = biological target: T1, Caspase 3 (Homo sapiens, UniProt P42574); experiment: Caspase 3 Activity Assay; type: biochemical; conditions: 500 nM Ac-DEVD-AMC; 3.2 nM enzyme; pre-incubated 30 minutes at 25° C., 60 minutes at 37° C.; sigmoidal fit; read-out: Caspase 3 (Inhibition of cysteine protease activities)
T1 sequence (P42574 29-175 limits assumed): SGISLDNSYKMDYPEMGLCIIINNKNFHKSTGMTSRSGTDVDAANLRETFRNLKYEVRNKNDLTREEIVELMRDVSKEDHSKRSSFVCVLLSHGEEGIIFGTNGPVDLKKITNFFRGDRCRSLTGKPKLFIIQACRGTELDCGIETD
T1 sequence (P42574 176-277 limits assumed): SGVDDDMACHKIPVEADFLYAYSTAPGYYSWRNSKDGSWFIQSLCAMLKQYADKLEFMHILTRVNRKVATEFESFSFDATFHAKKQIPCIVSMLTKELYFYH
Procedure: Caspase 3 was diluted in Caspase B buffer (100 mM Hepes pH 7.5; 10% sucrose; 0.1% CHAPS). Compounds stocks (100 mM) were stored at −20° C. in DMSO. Compounds were tested at the following final concentrations: 100 μM; 33.3 μM; 11.1 μM; 3.7 μM; 1.23 μM; 412 nM; 137 nM; 45.7 nM; 15.2 nM; 5 nM. Reactions were performed as duplicates in Black LJL 96 well plates (HE microplates; Molecular Devices; 20 μl final reaction volume). The substrate concentration for caspase 3 specificity assay was 500 nM (Ac-DEVD-AMC; Promega). The concentration of the enzyme (Caspase 3) in specificity assays was 3.2 nM. The concentrations were determined in order to perform specificity assays under initial velocities at fixed substrate concentration. Compounds were pre-incubated with enzymes for 30 minutes at 25° C. Reactions were initiated by addition of substrate to the plates containing the enzymes (+/− compounds) diluted in assay buffer. Reactions were incubated for 60 minutes at 37° C. Reactions were stopped by adding acetic acid (100 mM final) Readings were performed on a Pherastar Fluorescent Reader (BMG). δ Emission 380 nm; δ Excitation=460 nm. Data (mean values +/− standard deviation) were analyzed as % of control (no compound) and plotted as percentage versus the Log of the compound concentration using GraphPad (Prism). Data were fitted to a sigmoidal model (variable slope).

[2] = test system: HCT116 colon cancer cells; experiment: HCT116 Cell Viability and Proliferation Assay; type: cell-based; conditions: MTS, mean of three independent experiments, read-out: HCT116 GI50 D3
Procedure: HCT116 colon cancer cells were obtained from ATCC (American Type Culture Collection), and maintained in Mc Coy's 5A medium containing 10% FBS, 3 mM glutamine and 1% penicillin/streptomycin. Cells were incubated at 37° C. in a humidified atmosphere containing 5% CO2.
(§1) Cell viability was assayed using the MTS technique in 96-well culture plates (CellTiter 96® Aqueous Non-Radioactive Cell Proliferation Assay, Promega) according to the manufacturer's instructions. MTS (3-(4,5-dimethylthiazol-2-yl)-5(3-carboxymethoxyphenyl)-2-(4-sulfophenyl)-2H-tetra-zolium) is a MTT-derived tetrazolium that is reduced in metabolically active cells into a soluble, cell-permeant formazan. The amount of formazan, detected by its absorbance at 492 nm is proportional to the number of living, metabolically active cells.
(§2) 10^3 HCT116 cells were seeded per well. 24 hours later, the medium was changed and the cells treated in triplicate with the following concentrations of each compound: 10 μM-3.33 μM-1.11 μM-370 nM-123 nM-41 nM-14 nM and 5 nM. The compounds were diluted in 100% DMSO, whose final concentration on cells was kept at 0.5%.
(§3) Cells were incubated with the compounds for 72 hours, and their viability then assayed by the addition of MTS for 2 hours. Absorbance at 492 nm was measured directly from the 96-well culture plates. GI50 (Growth Inhibition 50) concentrations for each compound were calculated using a sigmoidal variable slope fit (Prism 4.0, Graphpad Softwares). Values represent mean of three independent experiments.

[3] = test system: PC-3 prostate cancer cells; experiment: PC3 Cell Viability and Proliferation Assay; type: cell-based; conditions: MTS, mean of three independent experiments, read-out: PC3 GI50 D3
Procedure: PC-3 prostate cancer cells were obtained from ATCC, and maintained in F-12K medium containing 7% FBS and 1% penicillin/streptomycin. Cells were incubated at 37° C. in a humidified atmosphere containing 5% CO2.
as §1, with “(3-(4,5-dimethyl-thiazol-2-yl)-5-(3-carboxymethoxyphenyl)-2-(4-sulfophenyl)-2H-tetrazolium)” for “(3-(4,5-dimethylthiazol-2-yl)-5(3-carboxymethoxyphenyl)-2-(4-sulfophenyl)-2H-tetra-zolium)”
as §2, with “2×10^3 PC3” for “10^3 HCT116”
as §3

[4] = Homo sapiens, HCT-116, 72 hours

Row | Compound | pIC50 [1] | also measured
1 | CCc1nnc2nc3c(nn12)C(=O)c1ccccc1-3 [Example 1d/A, 1-Ethyl-2,3,4,10,10a-pentaaza-cyclopenta[b]fluoren-9-one] | 4.94 | –
2 | CCc1nnc2nc3c(nn12)-c1ccccc1C3=O [Example 1d/B, 3-Ethyl-1,2,3a, 4,10-pentaaza-cyclopenta[b]fluoran-9-one] | 6.67 and 6.33 | –
3 | CCCc1nnc2nc3c(nn12)C(=O)c1ccccc1-3 [Example 1e/A, 1-Propyl-2,3,4,10,10a-pentaaza-cyclopenta[b]fluoren-9-one] | < 4.00 | –
4 | CCCc1nnc2nc3c(nn12)-c1ccccc1C3=O [Example 1e/B, 3-Propyl-1,2,3a, 4,10-pentaaza-cyclopenta[b]fluoren-9-one] | 6.14 | –
5 | CCCCc1nnc2nc3c(nn12)C(=O)c1ccccc1-3 [Example 1f/A, 1-Butyl-2,3,4,10,10a-pentaaza-cyclopenta[b]fluoren-9-one] | 5.34 | –
6 | CCCCc1nnc2nc3c(nn12)-c1ccccc1C3=O [Example 1f/B, 3-Butyl-1,2,3a,4,10-pentaaza-cyclopenta[b]fluoren-9-one] | 6.32 | –
7 | CC(C)Cc1nnc2nc3c(nn12)-c1ccccc1C3=O [Example 1g/B, 3-Isobutyl-1,2,3a,4,10-pentaaza-cyclopenta[b]fluoren-9-one] | 6.20 | –
8 | O=C1c2ccccc2-c2nc3nnc(CO)n3nc21 [Example 1h/A, 1-Hydroxymethyl-2,3,4,10,10a-pentaaza-cyclopenta[b]fluoren-9-one] | 5.41 | –
9 | O=C1c2ccccc2-c2nn3c(CO)nnc3nc21 [Example 1h/B] | 5.99 | –
10 | COCc1nnc2nc3c(nn12)C(=O)c1ccccc1-3 [Example 1i/A, 1-Methoxymethyl-2,3,4,10,10a-pentaaza-cyclopenta[b]fluoren-9-one] | 6.03 | –
11 | O=C1c2ccccc2-c2nc3nnc(C4CC4)n3nc21 [Example 1j/A, 1-Cyclopropyl-2,3,4,10,10a-pentaaza-cyclopenta[b]fluoren-9-one] | 5.72 | –
12 | O=C1c2ccccc2-c2nn3c(Cc4ccccc4)nnc3nc21 [Example 1k/B, 3-Benzyl-1,2,3a,4,10-pentaaza-cyclopenta[b]fluoren-9-one] | 6.79 | –
13 | Cc1nnc2nc3c(nn12)-c1ccc(Cl)cc1C3=O [Example 3/B, 7-Chloro-3-methyl-1,2,3a, 4,10-pentaaza-cyclopenta[b]fluoren-9-one] | 6.13 | –
14 | Cn1nc2nc3c(nc2n1)-c1ccccc1C3=O [Example 4a, 2-Methyl-2H-1,2,3,4,10-pentaaza-cyclopenta[b]fluoren-9-one] | – | GI50 [2, 4]: > 10000 nM; GI50 ([3]; Homo sapiens, PC-3, 72 hours): > 10000 nM
15 | O=C1c2ccccc2-c2nc3nn(Cc4ccccc4)nc3nc21 [Example 4b, 2-Benzyl-2H-1,2,3,4,10-pentaaza-cyclopenta[b]fluoren-9-one] | – | GI50 [2, 4]: > 10000 nM; GI50 ([3]; Homo sapiens, PC-3, 72 hours): > 10000 nM

Now from value to compound, other results behind:

Row | pIC50 [1] | Compound | also measured
16 | 5.82 | 6-(7)-Chloro-1-methyl-2,3,4,10,10a-pentaaza-cyclopenta[b]fluoren-9-one [Example 3/A] | GI50 ([2]; 72 hours): 361 nM; GI50 ([3]; 72 hours): 994 nM
17 | 5.39 | Cc1nnc2nc3c(nn12)C(=O)c1ccccc1-3 [Example 1b/A, 1-Methyl-2,3,4,10,10a-pentaaza-cyclopenta[b]fluoren-9-one] | –
18 | 6.37 | Cc1nnc2nc3c(nn12)-c1ccccc1C3=O [Example 1b/B, 3-Methyl-1,2,3a,4,10-pentaaza-cyclopenta[b]fluoren-9-one] | –
19 | 5.43 | Nc1nnc2nc3c(nn12)C(=O)c1ccccc1-3 [Example 1c/A, 1-Amino-2,3,4,10,10a-pentaaza-cyclopenta[b]fluoren-9-one] | GI50 ([3]; Homo sapiens, PC-3, 72 hours): > 10000 nM
20 | < 4.00 | CC(C)Cc1nnc2nc3c(nn12)C(=O)c1ccccc1-3 [Example 1g/A, 1-Isobutyl-2,3,4,10,10a-pentaaza-cyclopenta[b]fluoren-9-one] | –
21 | 6.25 | COCc1nnc2nc3c(nn12)-c1ccccc1C3=O [Example 1i/B, 3-Methoxymethyl-1,2,3a, 4,10-pentaaza-cyclopenta[b]fluoren-9-one] | –
22 | 6.73 | O=C1c2ccccc2-c2nn3c(C4CC4)nnc3nc21 [Example 1j/B, 3-Cyclopropyl-1,2,3a,4,10-pentaaza-cyclopenta[b]fluoren-9-one] | –
23 | 6.22 | O=C1c2ccccc2-c2nc3nnc(Cc4ccccc4)n3nc21 [Example 1k/A, 1-Benzyl-2,3,4,10,10a-pentaaza-cyclopenta[b]fluoren-9-one] | –
